# Results taken from patent publication US11040035B2, “3-oxo-2,6-diphenyl-2,3-dihydropyridazine-4-carboxamides” (BAYER PHARMA AKTIENGESELLSCHAFT, priority 2016, dated 2021).
# Where “and” joins values, the source holds several entries; their conditions need not be identical. Equal values may be shown once. Read-outs that look alike come from different tables or passages of the source.
# Columns and labels:
# [1] = tested on: TNFa production by LPS-stimulated human monocytes; assay: In vitro assay 4: rescue of TNFa production from human primary monocytes; format: cell-based; conditions: one value per donor; for Emax: Homo sapiens, Monocyte, 18 h, human monocytes, 10 ng/mL LPS + 200 μM KA, 18 hours, highest percent TNFa rescue relative to highest rescue with GNF-351, read-out: Individual Donors % rescue TNFa normalised to ref cmpd
# Method: In Vitro Assay 4: Rescue of TNFa Production from Human Primary Monocytes
# The ability of the substances to enhance immune cell activity was determined. The substances were tested for their capacity to reverse KA-induced inhibition of TNFa production by LPS-stimulated human monocytes. Human monocytes were purified by negative selection from donor PBMCs using Miltenyi beads and seeded at 2×10^5 cells/well in complete growth medium (RPMI 1640, 10% FCS). Monocytes were incubated with 10 ng/mL LPS (0127:68, #L4516, Sigma) and 200 μM KA (#3375, Sigma) and substances were added at concentrations of 1 μM, 0.3 μM and 0.1 μM and cultured for 18 hours. LPS alone served as the positive control. TNFa production in the supernatant was measured by Meso Scale Discovery immunassay and the ability of the substances to rescue TNFa production was calculated as a percentage of LPS stimulation and KA-induced inhibition and normalized to the donor-specific response with the reference AHR antagonist compound GNF-351 (Smith et al., J Pharmacol Exp Ther, 2011, 338(1):318-27).
# [2] = tested on: AHR-regulated gene CYP1A1; assay: In vitro assay 3: AHR-regulated CYP1A1 expression in human cell line (U937, qPCR)
# Method: In Vitro Assay 3: AHR-Regulated CYP1A1 Expression in Human Cell Line
# To assess the AHR inhibitory activity of the substances described in this application, the ability thereof to antagonise ligand-induced AHR gene regulation in a dose-dependent manner was quantified. For this purpose, quantitative PCR analysis was used to determine expression of the AHR-regulated gene CYP1A1 in a human monocytic U937 cell line upon stimulation with 200 μM KA in the presence and absence of AHR inhibitor. U937 cells were sown at a concentration of 2×10^5 cells/well in 100 ul of growth medium (RPMI 1640, 20% FCS) in 96-well microtitre plates. CYP1A1 expression was induced with 200 μM KA (positive control) in the presence or absence of the substances for 6 hours. Human U937 cells were typically incubated with eight different concentrations of the substances (1 nM, 3 nM, 10 nM, 30 nM, 100 nM, 300 nM, 1 μM and 3 μM) and analyzed in duplicate on the same microtitre plate. After stimulation, cells were lysed with Nucleic Acid Lysis Solution (#4305895, Applied Biosystems) and RNA was isolated using the 6100 Nucleic Acid Preparation Station (Applied Biosystems) and reverse-transcribed to cDNA using SuperScript VILO cDNA synthesis kit (#11754-250, Invitrogen). Unstimulated cells were used as the negative control. Taqman probes for human CYP1A1 (Hs01054797_g1) and human HPRT (Hs02800695_m1) were used to analyze fold expression of CYP1A1 of HPRT. Quantitation was performed on a Taqman SDS7900HT.
# [3] = target: T1, AHR (Homo sapiens, UniProt P35869); assay: In vitro assay 2: agonism in human cell line (transactivation assay)
# T1 sequence (P35869 11-848): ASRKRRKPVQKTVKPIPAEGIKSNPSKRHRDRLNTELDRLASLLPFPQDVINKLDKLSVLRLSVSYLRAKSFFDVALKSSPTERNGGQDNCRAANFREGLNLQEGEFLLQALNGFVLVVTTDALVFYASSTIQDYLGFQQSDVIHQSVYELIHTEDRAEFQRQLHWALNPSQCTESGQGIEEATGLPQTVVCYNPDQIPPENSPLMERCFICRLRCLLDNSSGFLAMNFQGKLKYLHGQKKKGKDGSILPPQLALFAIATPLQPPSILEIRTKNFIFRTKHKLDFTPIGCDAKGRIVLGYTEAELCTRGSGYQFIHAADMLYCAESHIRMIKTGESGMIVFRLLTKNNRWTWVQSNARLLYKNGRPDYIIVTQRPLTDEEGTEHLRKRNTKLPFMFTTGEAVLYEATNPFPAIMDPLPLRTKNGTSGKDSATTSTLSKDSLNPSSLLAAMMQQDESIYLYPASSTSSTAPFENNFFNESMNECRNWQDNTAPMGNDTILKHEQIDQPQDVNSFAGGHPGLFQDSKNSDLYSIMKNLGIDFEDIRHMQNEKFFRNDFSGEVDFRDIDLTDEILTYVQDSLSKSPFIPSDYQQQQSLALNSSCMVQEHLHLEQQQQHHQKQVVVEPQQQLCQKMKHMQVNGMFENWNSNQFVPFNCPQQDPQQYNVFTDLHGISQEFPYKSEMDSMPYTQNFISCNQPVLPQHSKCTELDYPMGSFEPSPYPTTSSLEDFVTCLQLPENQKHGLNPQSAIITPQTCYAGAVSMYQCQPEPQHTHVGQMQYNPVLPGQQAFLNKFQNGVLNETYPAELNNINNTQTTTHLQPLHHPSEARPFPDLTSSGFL
# [4] = target: T1, AHR; assay: In vitro assay 1: antagonism in human cell line (transactivation assay, kynurenic acid prestimulated); conditions: Assay 1: AHR-luc Hum Antagonism IC50 [M], 150 μM kynurenic acid, 20 hours, firefly luciferase
# [5] = tested on: CT26 tumor cells; assay: In vivo assay: efficacy of example compound and PD-1-L1 axis antagonist in CT26 tumor model; conditions: female Balb/c mice, CT26 s.c.; example 23 30 mg/kg BID p.o.; aPD-L1 (TPP-3911) 10 mg/kg q3d i.p.; treatment from day 5
# Text: In Vivo Assay: Efficacy of Compositions Comprising an Example Compound and a PD-1-L1 Axis Antagonist
# Animals were ordered from Charles River Sulzfeld, Germany and assigned to the study at the age of 8 weeks. Animal husbandry, feeding and health conditions are according to animal welfare guidelines. CT26 cells (aquired from ATCC) were cultivated with RPMI 1640 with 10% FCS and splitted at least 3 times before inoculation. Female Balb/c mice were inoculated with 500.000 CT26 tumor cells in 50% medium/50% matrigel subcutaneously in the flank. After 4 days the animals were randomized and therapeutic treatment started on day 5.
# The anti-PDL1 antibody is a chimera of the variable domain of atezolizumab with murine IgG1 CH1, 2 and 3 domains.
# Tumor size was measured using calipers determining length (a) and width (b). Tumor volume was calculated according to:
# Significance of monotherapies and combination treatment was calculated versus control group as determined by 2-Way ANOVA analysis.
# After 4 days the animals were randomized and therapeutic treatment started on day 5. […] Significance of monotherapies and combination treatment was calculated vs. control group as determined by 2-Way ANOVA analysis.
# [6] = target: T1, AHR; conditions: 20 h
# [7] = Homo sapiens, U-937, 6 h, read-out: Assay 3: Hum CYP1A1 Antagonism IC50 [M], U937 cells, 200 μM KA, 6 hours, qPCR
# [8] = Assay 2: AHR-luc Hum Agonism IC50 [M], no kynurenic acid, 20 hours, firefly luciferase
# [9] = read-out: Assay 2: AHR-luc Hum Agonism IC50, no kynurenic acid, 20 hours, firefly luciferase
# [10] = read-out: Assay 3: Hum CYP1A1 Antagonism IC50, U937 cells, 200 μM KA, 6 hours, qPCR
SMILES,"IC50 [2, 7] [M]","IC50 [3, 8] [M]",IC50 [4] [M],"IC50 [3, 9] [M]","IC50 [2, 10] [M]",Emax [1] [%],"T/C, ratio of tumor size under treatment versus tumor size in the control group [5]",IC50 [6] [nM],"Individual Donors Conc of highest rescue ([1]; concentration (of 1, 0.3, 0.1 μM tested) at which highest TNFa rescue was observed)"
"CC[C@@H](CO)NC(=O)c1cc(-c2ccc(Cl)c(F)c2)nn(-c2cccc(F)c2)c1=O [Example 288, 6-(4-Chloro-3-fluorophenyl)-2-(3-fluorophenyl)-N-[(2S)-1-hydroxybutan-2-yl]-3-oxo-2,3-dihydropyridazine-4-carboxamide]",8.05e-08,> 2e-05,3.97e-08,–,–,82,–,–,–
"C[C@@H](CO)NC(=O)c1cc(-c2ccc(Cl)cc2)nn(-c2cccc(F)c2)c1=O [Example 23, 6-(4-Chlorophenyl)-2-(3-fluorophenyl)-N-[(2S)-1-hydroxypropan-2-yl]-3-oxo-2,3-dihydropyridazine-4-carboxamide]",7.07e-08,> 2e-05,3.99e-08,–,–,–,0.75,–,–
"CC(C)(O)C(NC(=O)c1cc(-c2ccc(Cl)cc2)nn(-c2cccc(F)c2)c1=O)C(F)(F)F (single isomer, unassigned) [Example 279]",2.89e-09,–,6.07e-09,> 2e-05,–,53,–,–,–
"Cc1ccc(-c2cc(C(=O)NCC(O)C(F)(F)F)c(=O)n(-c3cc(F)cc(F)c3)n2)cc1 (single isomer, unassigned) [Example 54, 2-(3,5-Difluorophenyl)-6-(4-methylphenyl)-3-oxo-N-(3,3,3-trifluoro-2-hydroxypropyl)-2,3-dihydropyridazine-4-carboxamide]",–,–,4.07e-08,–,–,–,–,> 20000,–
"Cc1cncc(-c2nc(NCCc3c[nH]c4ccccc34)c3ncn(C(C)C)c3n2)c1 [GNF-351, reference compound]",–,–,–,–,–,–,–,–,0.3 µM and 0.1 µM
"O=C(NCCCO)c1cc(-c2ccc(Cl)cc2)nn(-c2cccc(F)c2)c1=O [Example 189, 6-(4-Chlorophenyl)-2-(3-fluorophenyl)-N-(3-hydroxypropyl)-3-oxo-2,3-dihydropyridazine-4-carboxamide]",2e-06,> 2e-05,1.86e-07,–,–,–,–,–,–
"CC(O)C(NC(=O)c1cc(-c2ccc(Cl)cc2)nn(-c2cccc(F)c2)c1=O)C(F)(F)F (single isomer, unassigned) [Example 198, 6-(4-chlorophenyl)-2-(3-fluorophenyl)-3-oxo-N-(1,1,1-trifluoro-3-hydroxybutan-2-yl)-2,3-dihydropyridazine-4-carboxamide]",1.49e-08,> 2e-05,1.34e-08,–,–,–,–,–,–
"O=C(NCC1(O)CCC1)c1cc(-c2ccc(Cl)cc2)nn(-c2cccc(F)c2)c1=O [Example 212, 6-(4-Chlorophenyl)-2-(3-fluorophenyl)-N-[(1-hydroxycyclobutyl)methyl]-3-oxo-2,3-dihydropyridazine-4-carboxamide]",4.92e-08,> 2e-05,3.59e-08,–,–,–,–,–,–
"CC(CO)CNC(=O)c1cc(-c2ccc(C(F)(F)F)cc2)nn(-c2cccc(F)c2)c1=O (racemic) [Example 245, 2-(3-Fluorophenyl)-N-[(2RS)-3-hydroxy-2-methylpropyl]-3-oxo-6-[4-(trifluoromethyl)phenyl]-2,3-dihydropyridazine-4-carboxamide]",5.44e-08,> 2e-05,3.72e-08,–,–,–,–,–,–
"O=C(NCC1(O)CCCCC1)c1cc(-c2ccc(Cl)cc2)nn(-c2cccc(F)c2)c1=O [Example 129, 6-(4-Chlorophenyl)-2-(3-fluorophenyl)-N-[(1-hydroxycyclohexyl)methyl]-3-oxo-2,3-dihydropyridazine-4-carboxamide]",6e-07,> 2e-05,4.52e-07,–,–,30,–,–,–
"COc1ccc(-c2cc(C(=O)NCC(O)C(F)(F)F)c(=O)n(-c3cccc(F)c3)n2)cc1 (single isomer, unassigned) [Example 128, 2-(3-Fluorophenyl)-6-(4-methoxyphenyl)-3-oxo-N-(3,3,3-trifluoro-2-hydroxypropyl)-2,3-dihydropyridazine-4-carboxamide]",–,–,1.7e-07,> 2e-05,6e-07,–,–,–,–
"O=C(N[C@@H]1CCCC[C@@H]1O)c1cc(-c2ccc(Cl)cc2)nn(-c2cccc(F)c2)c1=O (relative stereo) [Example 103, 6-(4-Chlorophenyl)-2-(3-fluorophenyl)-N-(cis-2-hydroxycyclohexyl)-3-oxo-2,3-dihydropyridazine-4-carboxamide]",4.47e-09,> 2e-05,1.59e-08,–,–,–,–,–,–

# The remaining compounds from weak to strong by IC50 [4], led by results:
"IC50 [2, 7] [M]","IC50 [3, 8] [M]",IC50 [4] [M],"IC50 [3, 9] [M]","IC50 [2, 10] [M]",SMILES,Emax [1] [%],"T/C, ratio of tumor size under treatment versus tumor size in the control group [5]",IC50 [6] [nM],"Individual Donors Conc of highest rescue ([1]; concentration (of 1, 0.3, 0.1 μM tested) at which highest TNFa rescue was observed)"
1.07e-07,> 2e-05,1.19e-07,–,–,"C[C@@H](CO)NC(=O)c1cc(-c2ccc(Cl)c(Cl)c2)nn(-c2cccc(F)c2)c1=O [Example 300, 6-(3,4-Dichlorophenyl)-2-(3-fluorophenyl)-N-[(2S)-1-hydroxypropan-2-yl]-3-oxo-2,3-dihydropyridazine-4-carboxamide]",122,–,–,–
1.07e-07,> 2e-05,8.84e-08,–,–,"O=C(NCCCO)c1cc(-c2ccc(C(F)(F)F)cc2)nn(-c2cccc(F)c2)c1=O [Example 249, 2-(3-Fluorophenyl)-N-(3-hydroxypropyl)-3-oxo-6-[4-(trifluoromethyl)phenyl]-2,3-dihydropyridazine-4-carboxamide]",–,–,–,–
5.77e-08,> 2e-05,4.72e-08,–,–,"C[C@@H](O)[C@@H](C)NC(=O)c1cc(-c2ccc(Cl)cc2)nn(-c2cccc(F)c2)c1=O [Example 231, 6-(4-Chlorophenyl)-2-(3-fluorophenyl)-N-[(2R,3R)-3-hydroxybutan-2-yl]-3-oxo-2,3-dihydropyridazine-4-carboxamide]",–,–,–,–
8.1e-08,> 2e-05,2.73e-08,–,–,"CC(C)[C@@H](CO)NC(=O)c1cc(-c2ccc(Cl)c(Cl)c2)nn(-c2cccc(F)c2)c1=O [Example 301, 6-(3,4-Dichlorophenyl)-2-(3-fluorophenyl)-N-[(2S)-1-hydroxy-3-methylbutan-2-yl]-3-oxo-2,3-dihydropyridazine-4-carboxamide]",112,–,–,–
1.63e-08,> 2e-05,1.5e-08,–,–,"O=C(NC(CO)C(F)(F)F)c1cc(-c2ccc(Cl)cc2)nn(-c2cccc(F)c2)c1=O (stereo not shown) [Example 97, 6-(4-Chlorophenyl)-2-(3-fluorophenyl)-3-oxo-N-(1,1,1-trifluoro-3-hydroxypropan-2-yl)-2,3-dihydropyridazine-4-carboxamide]",–,–,–,–
–,> 2e-05,1.1e-08,–,3.01e-08,"CC(CCO)NC(=O)c1cc(-c2ccc(C(F)(F)F)cc2)nn(-c2cccc(F)c2)c1=O (single isomer, unassigned; (+)) [Example 254, (+)-2-(3-Fluorophenyl)-N-(4-hydroxybutan-2-yl)-3-oxo-6-[4-(trifluoromethyl)phenyl]-2,3-dihydropyridazine-4-carboxamide]",–,–,–,–
3.77e-09,–,1.04e-08,> 2e-05,–,"O=C(NC(CO)C(F)(F)F)c1cc(-c2ccc(Cl)cc2)nn(-c2cccc(F)c2)c1=O (single isomer, unassigned; (+)) [Example 99, (+)-6-(4-Chlorophenyl)-2-(3-fluorophenyl)-3-oxo-N-(1,1,1-trifluoro-3-hydroxypropan-2-yl)-2,3-dihydropyridazine-4-carboxamide]",101,–,–,–
